Blank lines part the entries; values can stand above or below the compound they belong to.
Assays:
aldose reductase = target: T1, aldose reductase (Bos taurus, UniProt P16116); test: in vitro inhibition of aldose reductase (modified Hayman and Kinoshita procedure, enzyme from bovine lens); assay type: biochemical; conditions: for inhibition at 0.04 µM: 4 × 10^-8 M; for inhibition at 10 µM: 10^-5 M; for inhibition at 1 µM: 10^-6 M; for inhibition at 0.1 µM: 10^-7 M
T1 construct: in the preparation of the enzyme from bovine lens; from tissue; host or cells: bovine lens
Method: (c) The polyol determination was performed by a modification of the procedure of M. Kraml and L. Cosyns, Clin. Biochem., 2,373 (1969). Only two minor reagent changes were made: (a) The rinsing mixture was an aqueous 5% (w/v) trichloroacetic acid solution and (b) the stock solution was prepared by dissolving 25 mg of dulcitol in 100 ml of an aqueous trichloroacetic acid solution. [N.B.: For each experiment the average value found in the tissue from rats fed the glucose diet was subtracted from the individual values found in the corresponding tissue in galactose-fed rats to obtain the amount of polyol accumulated.] The aldose reductase inhibiting effects of the compounds of formula (I) were also tested by employing an in vitro testing procedure similar to that described by S. Hayman and J. H. Kinoshita, J. Biol. Chem., 240,877 (1965). In the present case the procedure of Hayman and Kinoshita was modified in that the final chromatography step was omitted in the preparation of the enzyme from bovine lens. […] The figures under L and N represent the percentage decrease of dulcitol accumulation in the tissues of the lens and sciatic nerve, respectively, for treated rats as compared to untreated rats.

[1] = tested on: dulcitol accumulation in sciatic nerve; test: in vivo lowering of dulcitol accumulation in sciatic nerve of galactosemic rats; design: species or system rat (Sprague-Dawley); conditions: in diet, four days
From the text: (§1) The aldose reductase inhibiting property of the compounds of this invention and the utilization of the compounds in preventing, diminishing and alleviating diabetic complications are demonstrable in experiments using galactosemic rats, see Dvornik et al., Science, 182, 1146 (1973). Such experiments are exemplified hereinbelow after the listing of the following general comments pertaining to these experiments:
(§2) (a) Four or more groups of six male rats, 50-70 g, Sprague-Dawley strain, were used. The first group, the control group, was fed a mixture of laboratory chow (Rodent Laboratory Chow, Purina) and glucose at 20% (w/w %) concentration. The untreated galactosemic group was fed a similar diet in which galactose is substituted for glucose. The third group was fed a diet prepared by mixing a given amount of the test compound with the galactose containing diet. The concentration of the galactose in the diet of the treated groups was the same as that for the untreated galactosemic group.
(§3) (b) After four days, the animals were killed by euthanization. The lenses were removed from the eyes and weighed. The sciatic nerves were dissected as completely as possible and weighed. Both tissues when frozen can be kept up to two weeks before being analyzed for dulcitol.
(c) The polyol determination was performed by a modification of the procedure of M. Kraml and L. Cosyns, Clin. Biochem., 2,373 (1969). Only two minor reagent changes were made: (a) The rinsing mixture was an aqueous 5% (w/v) trichloroacetic acid solution and (b) the stock solution was prepared by dissolving 25 mg of dulcitol in 100 ml of an aqueous trichloroacetic acid solution. [N.B.: For each experiment the average value found in the tissue from rats fed the glucose diet was subtracted from the individual values found in the corresponding tissue in galactose-fed rats to obtain the amount of polyol accumulated.] The aldose reductase inhibiting effects of the compounds of formula (I) were also tested by employing an in vitro testing procedure similar to that described by S. Hayman and J. H. Kinoshita, J. Biol. Chem., 240,877 (1965). In the present case the procedure of Hayman and Kinoshita was modified in that the final chromatography step was omitted in the preparation of the enzyme from bovine lens.
The figures under L and N represent the percentage decrease of dulcitol accumulation in the tissues of the lens and sciatic nerve, respectively, for treated rats as compared to untreated rats.

[2] = tested on: dulcitol accumulation in lens; test: in vivo lowering of dulcitol accumulation in lens of galactosemic rats; design: species or system rat (Sprague-Dawley); conditions: in diet, four days
From the text: as §1, §2, §3
(c) The polyol determination was performed by a modification of the procedure of M. Kraml and L. Cosyns, Clin. Biochem., 2,373 (1969). Only two minor reagent changes were made: (a) The rinsing mixture was an aqueous 5% (w/v) trichloroacetic acid solution and (b) the stock solution was prepared by dissolving 25 mg of dulcitol in 100 ml of an aqueous trichloroacetic acid solution. [N.B.: For each experiment the average value found in the tissue from rats fed the glucose diet was subtracted from the individual values found in the corresponding tissue in galactose-fed rats to obtain the amount of polyol accumulated.] […]

- inhibition at 10 µM (aldose reductase): 64.5%
- inhibition at 1 µM (aldose reductase): 26.6%
SMILES: COC(=O)NC(=O)CC1C(=O)N(C)C(=O)c2ccc(Cl)cc21 (stereo not shown) [6Cl, H, CH3, NHCO2 CH3, [(6-chloro-1,2,3,4-tetrahydro-2-methyl-1,3-dioxo-4-isoquinolinyl)acetyl]carbamic acid methyl ester]
- % Lowering Ducitol Accumulation In vivo, Lens ([2]; 25 mg/kg): 24%
- % Lowering Ducitol Accumulation In vivo, Lens ([2]; 86.1 mg/kg): 55%
- % Lowering Ducitol Accumulation In vivo, Nerve ([1]; 25 mg/kg): 53%
- % Lowering Ducitol Accumulation In vivo, Nerve ([1]; 86.1 mg/kg): 81%

- inhibition at 10 µM (aldose reductase): 50%
- inhibition at 1 µM (aldose reductase): 17%
SMILES: COC(=O)NC(=O)CC1C(=O)N(C)C(=O)c2cc(Cl)ccc21 (stereo not shown) [7Cl, CH3, NHCO2 CH3, [(7-chloro-1,2,3,4-tetrahydro-2-methyl-1,3-dioxo-4-isoquinolinyl)acetyl]carbamic acid methyl ester]
- % Lowering Ducitol Accumulation In vivo, Nerve ([1]; 24.3 mg/kg): 28%

Further lines, the compound ahead of its results:

SMILES: O=C(O)CC1C(=O)N(Cc2ccc(Br)cc2F)C(=O)c2ccccc21 (stereo not shown) [2-[(4-Bromo-2-fluorophenyl)methyl]-1,2,3,4-tetrahydro-1,3-dioxo-4-isoquinolineacetic Acid]
- inhibition at 0.04 µM (aldose reductase): 50%
- inhibition at 10 µM (aldose reductase): 94%
- inhibition at 1 µM (aldose reductase): 91%
- inhibition at 0.1 µM (aldose reductase): 88%

SMILES: O=C(O)CC1C(=O)N(Cc2ccc(Br)cc2F)C(=O)c2ccc(F)cc21 (stereo not shown) [2-[(4-Bromo-2-fluorophenyl)methyl]-6-fluoro-1,2,3,4-tetrahydro-1,3-dioxo-4-isoquinolineacetic Acid]
- inhibition at 0.04 µM (aldose reductase): 80%
- inhibition at 10 µM (aldose reductase): 96%
- inhibition at 1 µM (aldose reductase): 91%
- inhibition at 0.1 µM (aldose reductase): 86%
- % Lowering Ducitol Accumulation In vivo, Nerve ([1]; 25 mg/kg): 47%

SMILES: CCOC(=O)NC(=O)CC1C(=O)N(C)C(=O)c2ccc(Cl)cc21 (stereo not shown) [-6Cl, H, CH3, NHCO2 C2 H5, [(6-chloro-1,2,3,4-tetrahydro-2-methyl-1,3-dioxo-4-isoquinolinyl)acetyl]carbamic acid ethyl ester]
- inhibition at 10 µM (aldose reductase): 14.5%
- % Lowering Ducitol Accumulation In vivo, Nerve ([1]; 24.5 mg/kg): 34%

SMILES: COC(=O)NC(=O)CC1C(=O)N(C)C(=O)c2ccccc21 (stereo not shown) [H, H, CH3, NHCO2 CH3, [(1,2,3,4-Tetrahydro-2-methyl-1,3-dioxo-4-isoquinolinyl)acetyl]carbamic Acid Methyl Ester]
- inhibition at 10 µM (aldose reductase): 61%
- % Inhibition in vitro (aldose reductase; 10^- M (exponent not given)): 11%
- % Lowering Ducitol Accumulation In vivo, Lens ([2]; 85.0 mg/kg): 37.2%
- % Lowering Ducitol Accumulation In vivo, Nerve ([1]; 26.8 mg/kg): 21.2%
- % Lowering Ducitol Accumulation In vivo, Nerve ([1]; 85.0 mg/kg): 58.6%

SMILES: COC(=O)NC(=O)CC1C(=O)N(Cc2ccc(Br)cc2F)C(=O)c2ccc(F)cc21 (stereo not shown) [[[2-[(4-Bromo-2-fluorophenyl)methyl]-6-fluoro-1,2,3,4-tetrahydro-1,3-dioxo-4-isoquinolinyl]acetyl]carbamic Acid Methyl Ester]
- inhibition at 10 µM (aldose reductase): 55%
- inhibition at 1 µM (aldose reductase): 18%
- % Lowering Ducitol Accumulation In vivo, Nerve ([1]; 26 mg/kg): 78%
